IC50 data for 20 compounds are collected here from patent US20240360151A1 (SANOFI, priority 2023, published 2024).

One assay addresses T1, NLRP3 inflammasome (Homo sapiens, UniProt Q96P20).
T1 construct: endogenous in cells; host or cells: THP-1 monocytic cells
The experiment in a line: IL-1β secretion assay (NLRP3 IC50) in LPS-primed, nigericin-activated THP-1 cells, HTRF. Type of assay: cell-based. The following applies: monocytic THP-1 cells; LPS 10 ng/mL 3 h priming, then compound + nigericin 10 μM 2 h; relative IC50, 10 concentrations, geometric mean. The gist of the method: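 THP-1 cells primed with LPS 10 ng/mL for 3 h at 37° C., then compound (10-point 1:3 dilution, 0.1% DMSO) added with 10 μM nigericin for 2 h. Supernatant IL-1β measured by HTRF; relative IC50 from a 4-parameter logistic fit, reported as geometric mean.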

The subject of assay [1] is NF-kB pathway (TNF-α secretion by THP-1 cells). The experiment in a line: TNF-α secretion assay in LPS-stimulated THP-1 cells, Lumit immunoassay. Type of assay: cell-based, human. The following applies: Homo sapiens, THP-1, 3 h, monocytic THP-1 cells, LPS 10 ng/mL, relative IC50, 10 concentrations, geometric mean. The gist of the method: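 THP-1 monocytes in RPMI with 5% FBS were treated with compound, then stimulated with 10 ng/mL LPS for 3 h. Secreted TNF-α was measured in-plate by Lumit immunoassay. Relative IC50 came from 10-concentration curves fitted with a 4-parameter logistic model, reported as geometric mean.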

T1 sequence (Q96P20 whole entry): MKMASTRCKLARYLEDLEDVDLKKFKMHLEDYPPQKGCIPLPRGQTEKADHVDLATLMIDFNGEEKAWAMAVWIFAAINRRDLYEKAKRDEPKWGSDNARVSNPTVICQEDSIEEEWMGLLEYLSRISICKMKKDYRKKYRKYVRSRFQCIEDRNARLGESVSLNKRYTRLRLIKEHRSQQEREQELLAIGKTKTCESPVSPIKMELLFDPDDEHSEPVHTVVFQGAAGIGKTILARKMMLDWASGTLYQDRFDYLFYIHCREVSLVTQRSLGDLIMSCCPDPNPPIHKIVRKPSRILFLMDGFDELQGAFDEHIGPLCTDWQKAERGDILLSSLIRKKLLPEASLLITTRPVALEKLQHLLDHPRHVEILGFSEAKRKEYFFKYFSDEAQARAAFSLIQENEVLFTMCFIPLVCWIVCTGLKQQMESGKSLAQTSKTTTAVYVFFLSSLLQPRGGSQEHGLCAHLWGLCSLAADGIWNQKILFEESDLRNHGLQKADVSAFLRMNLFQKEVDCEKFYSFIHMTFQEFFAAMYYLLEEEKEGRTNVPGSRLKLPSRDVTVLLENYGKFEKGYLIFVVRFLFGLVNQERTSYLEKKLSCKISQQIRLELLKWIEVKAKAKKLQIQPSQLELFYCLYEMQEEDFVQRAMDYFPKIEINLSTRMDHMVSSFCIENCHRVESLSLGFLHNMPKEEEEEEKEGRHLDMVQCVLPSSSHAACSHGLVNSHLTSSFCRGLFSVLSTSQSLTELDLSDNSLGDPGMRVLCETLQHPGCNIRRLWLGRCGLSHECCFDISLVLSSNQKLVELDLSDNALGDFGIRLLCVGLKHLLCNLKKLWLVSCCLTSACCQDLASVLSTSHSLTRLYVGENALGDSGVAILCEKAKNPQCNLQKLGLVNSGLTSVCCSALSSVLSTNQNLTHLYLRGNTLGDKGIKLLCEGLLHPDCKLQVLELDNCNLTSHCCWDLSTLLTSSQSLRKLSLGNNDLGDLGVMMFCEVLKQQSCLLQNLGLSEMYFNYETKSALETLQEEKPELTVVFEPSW

By IC50 is commonly meant the point on the concentration scale where inhibition reaches its midpoint. `Cc1ccc(-c2nnc(N3CCO[C@@H]4CCN(C)C[C@@H]43)cc2C(F)F)c(O)c1` [Example 295, 2-[6-[(4aS,8aR)-6-methyl-3,4a,5,7,8,8a-hexahydro-2H-pyrido[4,3-b][1,4]oxazin-4-yl]-4-(difluoromethyl)pyridazin-3-yl]-5-methyl-phenol]: the IC50 was 0.002 µM on NLRP3 inflammasome and greater than 10 µM in assay [1].
The like results for `Cc1cc(C(F)(F)F)cc(O)c1-c1ccc(N2C[C@@H](CO)O[C@H](C)C2)nn1` [Example 296, 2-[6-[(2S,6R)-2-(hydroxymethyl)-6-methyl-morpholin-4-yl]pyridazin-3-yl]-3-methyl-5-(trifluoromethyl)phenol] were, in that order, 0.028 µM and greater than 10 µM.
The corresponding values for `Cc1cc(C(F)(F)F)cc(O)c1-c1ccc(N2C[C@@H](CO)O[C@@H](C)C2)nn1` [Example 297, 2-[6-[(2S,6S)-2-(hydroxymethyl)-6-methyl-morpholin-4-yl]pyridazin-3-yl]-3-methyl-5-(trifluoromethyl)phenol] are 0.011 µM and greater than 10 µM.
The like results for `CN1CC[C@H]2OCCN(c3cc(C(F)F)c(-c4ccc(C(F)(F)F)cc4O)nn3)[C@H]2C1` [Example 298, 2-[6-[(4aS,8aR)-6-methyl-3,4a,5,7,8,8a-hexahydro-2H-pyrido[4,3-b][1,4]oxazin-4-yl]-4-(difluoromethyl)pyridazin-3-yl]-5-(trifluoromethyl)phenol] were, in that order, 0.003 µM and greater than 10 µM.
Take `Cc1cccc(O)c1-c1ccc(N2CCO[C@H]3CCN(C)C[C@H]32)nn1` [Example 299, 2-[6-[(4aR,8aS)-6-methyl-3,4a,5,7,8,8a-hexahydro-2H-pyrido[4,3-b][1,4]oxazin-4-yl]pyridazin-3-yl]-3-methyl-phenol]: the concentration for half-maximal inhibition (IC50) on NLRP3 inflammasome was 0.015 µM; in assay [1], greater than 10 µM.
The corresponding values for `Cc1cc(C(F)(F)F)cc(O)c1-c1ccc(N2C[C@H](CO)O[C@H](C)C2)nn1` [Example 302, 2-[6-[(2R,6R)-2-(hydroxymethyl)-6-methyl-morpholin-4-yl]pyridazin-3-yl]-3-methyl-5-(trifluoromethyl)phenol] are 0.013 µM and greater than 10 µM.
On to `Cc1cc(Cl)cc(O)c1-c1ccc(N2CCO[C@H]3CCNC[C@H]32)nn1` [Example 308, 2-[6-[(4aR,8aS)-2,3,4a,5,6,7,8,8a-octahydropyrido[4,3-b][1,4]oxazin-4-yl]pyridazin-3-yl]-5-chloro-3-methyl-phenol], for which the values for the IC50 (at NLRP3 inflammasome; in assay [1]) were 0.009 µM and greater than 10 µM, respectively.
In the case of `Cc1cc(C)c(-c2ccc(N3CCO[C@@H]4CCN(C)C[C@@H]43)nn2)c(O)c1` [Example 311, 2-[6-[(4aS,8aR)-6-methyl-3,4a,5,7,8,8a-hexahydro-2H-pyrido[4,3-b][1,4]oxazin-4-yl]pyridazin-3-yl]-3,5-dimethyl-phenol], the IC50 on NLRP3 inflammasome is 0.002 µM; in assay [1], greater than 10 µM.
The like results for `Cc1cc(C)c(-c2ccc(N3CCO[C@H]4CCNC[C@H]43)nn2)c(O)c1` [Example 314, 2-[6-[(4aR,8aS)-2,3,4a,5,6,7,8,8a-octahydropyrido[4,3-b][1,4]oxazin-4-yl]pyridazin-3-yl]-3,5-dimethyl-phenol] were, in that order, 0.018 µM and greater than 10 µM.
The corresponding values for `Cc1ccc(-c2nnc(N3CCO[C@@H]4CCNC[C@@H]43)cc2C(F)F)c(O)c1` [Example 322, 2-[6-[(4aS,8aR)-2,3,4a,5,6,7,8,8a-octahydropyrido[4,3-b][1,4]oxazin-4-yl]-4-(difluoromethyl)pyridazin-3-yl]-5-methyl-phenol] are 0.08 µM and greater than 10 µM.
The corresponding values for `CCN1CC[C@H]2OCCN(c3cc(C(F)F)c(-c4ccc(C)cc4O)nn3)[C@H]2C1` [Example 323, 2-[6-[(4aS,8aR)-6-ethyl-3,4a,5,7,8,8a-hexahydro-2H-pyrido[4,3-b][1,4]oxazin-4-yl]-4-(difluoromethyl)pyridazin-3-yl]-5-methyl-phenol] are 0.003 µM and greater than 10 µM.
`Cc1cc(N2CCO[C@H](CO)C2)nnc1-c1ccc2c(c1O)CCC2` [Example 324, 5-[6-[(2S)-2-(hydroxymethyl)morpholin-4-yl]-4-methyl-pyridazin-3-yl]indan-4-ol]: the results for the IC50 (at NLRP3 inflammasome; in assay [1]) were 0.056 µM and greater than 10 µM, respectively.
The like results for `Cc1cc(Cl)cc(O)c1-c1ccc(N2CCO[C@@H](CF)C2)nn1` [Example 338, 5-chloro-2-[6-[(2R)-2-(fluoromethyl)morpholin-4-yl]pyridazin-3-yl]-3-methyl-phenol] were, in that order, 0.046 µM and greater than 10 µM.
The like results for `CN1CC[C@H]2OCCN(c3cc(C(F)F)c(-c4ccc(Cl)cc4O)nn3)[C@H]2C1` [Example 350, 2-[6-[(4aS,8aR)-6-methyl-3,4a,5,7,8,8a-hexahydro-2H-pyrido[4,3-b][1,4]oxazin-4-yl]-4-(difluoromethyl)pyridazin-3-yl]-5-chloro-phenol] were, in that order, 0.001 µM and greater than 10 µM.
The corresponding values for `Cc1ccc(F)c(O)c1-c1ccc(N2CCO[C@@H]3CCN(C)C[C@@H]32)nn1` [Example 353, 2-[6-[(4aS,8aR)-6-methyl-3,4a,5,7,8,8a-hexahydro-2H-pyrido[4,3-b][1,4]oxazin-4-yl]pyridazin-3-yl]-6-fluoro-3-methyl-phenol] are 0.029 µM and greater than 10 µM.
Take `Cc1cccc(O)c1-c1ccc(N2CCO[C@@H]3CCN(C)C[C@@H]32)nn1` [Example 354, 2-[6-[(4aS,8aR)-6-methyl-3,4a,5,7,8,8a-hexahydro-2H-pyrido[4,3-b][1,4]oxazin-4-yl]pyridazin-3-yl]-3-methyl-phenol]: the concentration for half-maximal inhibition (IC50) on NLRP3 inflammasome is 0.02 µM; in assay [1], greater than 10 µM.
The like results for `Cc1cc(N2CCO[C@@H]3CCN(C)C[C@@H]32)nnc1-c1cccc(F)c1O` [Example 356, 2-[6-[(4aS,8aR)-6-methyl-3,4a,5,7,8,8a-hexahydro-2H-pyrido[4,3-b][1,4]oxazin-4-yl]-4-methyl-pyridazin-3-yl]-6-fluoro-phenol] were, in that order, 0.061 µM and greater than 10 µM.
In the case of `CC(=O)N1CC[C@H]2OCCN(c3cc(C)c(-c4ccc(Cl)cc4O)nn3)[C@H]2C1` [Example 357, 1-[(4aS,8aR)-4-[6-(4-chloro-2-hydroxy-phenyl)-5-methyl-pyridazin-3-yl]-3,4a,5,7,8,8a-hexahydro-2H-pyrido[4,3-b][1,4]oxazin-6-yl]ethanone], the IC50 is 0.048 µM on NLRP3 inflammasome and greater than 10 µM in assay [1].
The corresponding values for `CCc1cccc(O)c1-c1ccc(N2CCO[C@@H]3CCN(C)C[C@@H]32)nn1` [Example 358, 2-[6-[(4aS,8aR)-6-methyl-3,4a,5,7,8,8a-hexahydro-2H-pyrido[4,3-b][1,4]oxazin-4-yl]pyridazin-3-yl]-3-ethyl-phenol] are 0.011 µM and greater than 10 µM.
The like results for `Cc1cc(C)c(-c2ccc(N3C[C@@H](CO)O[C@H](C)C3)nn2)c(O)c1` [Example 359, 2-[6-[(2S,6R)-2-(hydroxymethyl)-6-methyl-morpholin-4-yl]pyridazin-3-yl]-3,5-dimethyl-phenol] were, in that order, 0.098 µM and greater than 10 µM.
